Each block holds one molecule with its values, some of them ahead of it.
Experiments:
Assay in all cases: Apparent affinity (EC50) of energy transfer probes by titration onto live HEK293 cells expressing kinase/Nluc fusions (Table S1)
Format in all cases: binding
[1] = biological target: full-length kinase/Nluc fusion proteins (Homo sapiens, UniProt P49760); settings: CLK2, Nluc C; read-out: Probe EC50
[2] = biological target: full-length kinase/Nluc fusion proteins (Homo sapiens, UniProt Q02763); settings: TEK (NP_000450), Nluc orientation C; read-out: Probe EC50
[3] = biological target: full-length kinase/Nluc fusion proteins (Homo sapiens, UniProt Q14680); settings: MELK, Nluc N; read-out: Probe EC50
[4] = biological target: full-length kinase/Nluc fusion proteins (Homo sapiens, UniProt P30291); settings: WEE1 (NP_003381), Nluc orientation C; read-out: Probe EC50
[5] = biological target: full-length kinase/Nluc fusion proteins (Homo sapiens, UniProt P31152); settings: MAPK4, Nluc N; read-out: Probe EC50
full-length kinase/Nluc fusion proteins (Homo sapiens, UniProt P31152), sequence (P31152 whole entry, the tested form may be a part): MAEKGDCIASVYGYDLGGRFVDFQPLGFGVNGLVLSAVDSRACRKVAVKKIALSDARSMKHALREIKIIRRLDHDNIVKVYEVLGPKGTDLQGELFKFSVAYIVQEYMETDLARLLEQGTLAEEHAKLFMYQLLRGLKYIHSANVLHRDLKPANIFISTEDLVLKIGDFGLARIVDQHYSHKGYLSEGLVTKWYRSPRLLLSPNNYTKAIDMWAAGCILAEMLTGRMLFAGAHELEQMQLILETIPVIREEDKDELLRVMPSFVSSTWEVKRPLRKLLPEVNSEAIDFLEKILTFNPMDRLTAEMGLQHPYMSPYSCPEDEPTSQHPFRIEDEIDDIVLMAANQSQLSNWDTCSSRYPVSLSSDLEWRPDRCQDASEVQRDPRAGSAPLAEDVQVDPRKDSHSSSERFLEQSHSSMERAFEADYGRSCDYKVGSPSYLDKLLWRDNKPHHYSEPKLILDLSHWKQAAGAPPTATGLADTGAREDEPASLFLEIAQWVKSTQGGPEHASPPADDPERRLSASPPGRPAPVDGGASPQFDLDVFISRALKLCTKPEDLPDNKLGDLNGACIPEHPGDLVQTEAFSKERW

[6] = biological target: full-length kinase/Nluc fusion proteins (Homo sapiens, UniProt Q13043); settings: STK4 (NP_006273), Nluc orientation N; read-out: Probe EC50
[7] = biological target: full-length kinase/Nluc fusion proteins (Homo sapiens, UniProt Q16620); settings: NTRK2, Nluc C; read-out: Probe EC50
full-length kinase/Nluc fusion proteins (Homo sapiens, UniProt Q16620), sequence (Q16620 32-822): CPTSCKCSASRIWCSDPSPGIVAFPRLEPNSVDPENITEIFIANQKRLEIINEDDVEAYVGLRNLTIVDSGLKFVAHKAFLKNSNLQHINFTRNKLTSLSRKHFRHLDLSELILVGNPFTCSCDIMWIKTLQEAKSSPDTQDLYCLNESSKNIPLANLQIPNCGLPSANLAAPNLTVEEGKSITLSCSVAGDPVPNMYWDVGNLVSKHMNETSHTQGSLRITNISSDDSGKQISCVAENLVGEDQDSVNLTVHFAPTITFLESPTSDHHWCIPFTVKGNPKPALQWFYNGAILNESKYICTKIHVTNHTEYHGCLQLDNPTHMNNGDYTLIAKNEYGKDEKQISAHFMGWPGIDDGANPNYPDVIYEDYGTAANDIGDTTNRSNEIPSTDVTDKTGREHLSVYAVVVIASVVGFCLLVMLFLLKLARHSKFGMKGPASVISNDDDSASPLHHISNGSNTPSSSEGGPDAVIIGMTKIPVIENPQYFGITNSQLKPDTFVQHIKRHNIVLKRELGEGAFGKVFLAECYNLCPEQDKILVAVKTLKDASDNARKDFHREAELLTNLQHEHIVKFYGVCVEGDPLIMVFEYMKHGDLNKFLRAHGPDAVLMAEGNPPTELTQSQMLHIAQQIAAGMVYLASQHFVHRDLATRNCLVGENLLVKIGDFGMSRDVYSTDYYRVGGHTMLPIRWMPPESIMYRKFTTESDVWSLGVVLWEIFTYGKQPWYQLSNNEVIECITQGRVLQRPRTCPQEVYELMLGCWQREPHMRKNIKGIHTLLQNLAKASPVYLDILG

[8] = biological target: full-length kinase/Nluc fusion proteins (Homo sapiens, UniProt P36888); settings: FLT3, Nluc C; read-out: Probe EC50
[9] = biological target: full-length kinase/Nluc fusion proteins (Homo sapiens, UniProt P49759); settings: CLK1, Nluc N; read-out: Probe EC50
full-length kinase/Nluc fusion proteins (Homo sapiens, UniProt P49759), sequence (P49759 whole entry, the tested form may be a part): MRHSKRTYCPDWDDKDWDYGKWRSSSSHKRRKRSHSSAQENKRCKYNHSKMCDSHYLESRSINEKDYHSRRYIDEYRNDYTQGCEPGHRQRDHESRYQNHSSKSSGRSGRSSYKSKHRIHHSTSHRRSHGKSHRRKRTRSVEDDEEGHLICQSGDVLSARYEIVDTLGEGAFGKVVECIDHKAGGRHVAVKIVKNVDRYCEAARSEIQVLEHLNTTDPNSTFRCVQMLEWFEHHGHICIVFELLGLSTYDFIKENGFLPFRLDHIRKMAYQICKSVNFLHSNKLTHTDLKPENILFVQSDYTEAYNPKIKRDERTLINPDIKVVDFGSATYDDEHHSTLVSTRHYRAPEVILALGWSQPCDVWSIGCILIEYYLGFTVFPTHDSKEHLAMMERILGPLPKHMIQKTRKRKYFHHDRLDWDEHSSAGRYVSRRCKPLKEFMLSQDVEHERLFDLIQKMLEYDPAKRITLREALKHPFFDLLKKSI

[10] = biological target: full-length kinase/Nluc fusion proteins (Homo sapiens, UniProt Q92630); settings: DYRK2, Nluc C; read-out: Probe EC50
[11] = biological target: full-length kinase/Nluc fusion proteins (Homo sapiens, UniProt O76039); settings: CDKL5, Nluc N; read-out: Probe EC50
[12] = biological target: full-length kinase/Nluc fusion proteins (Homo sapiens, UniProt P30530); settings: AXL, Nluc C; read-out: Probe EC50
[13] = biological target: full-length kinase/Nluc fusion proteins (Homo sapiens, UniProt P19784); settings: CSNK2A2, Nluc C; read-out: Probe EC50
[14] = biological target: full-length kinase/Nluc fusion proteins (Homo sapiens, UniProt P29376); settings: LTK, Nluc C; read-out: Probe EC50
[15] = biological target: full-length kinase/Nluc fusion proteins (Homo sapiens, UniProt Q14289); settings: PTK2B, Nluc C; read-out: Probe EC50
[16] = biological target: full-length kinase/Nluc fusion proteins (Homo sapiens, UniProt P53779); settings: JNK3, Nluc C; read-out: Probe EC50
full-length kinase/Nluc fusion proteins (Homo sapiens, UniProt P53779), sequence (P53779 whole entry, the tested form may be a part): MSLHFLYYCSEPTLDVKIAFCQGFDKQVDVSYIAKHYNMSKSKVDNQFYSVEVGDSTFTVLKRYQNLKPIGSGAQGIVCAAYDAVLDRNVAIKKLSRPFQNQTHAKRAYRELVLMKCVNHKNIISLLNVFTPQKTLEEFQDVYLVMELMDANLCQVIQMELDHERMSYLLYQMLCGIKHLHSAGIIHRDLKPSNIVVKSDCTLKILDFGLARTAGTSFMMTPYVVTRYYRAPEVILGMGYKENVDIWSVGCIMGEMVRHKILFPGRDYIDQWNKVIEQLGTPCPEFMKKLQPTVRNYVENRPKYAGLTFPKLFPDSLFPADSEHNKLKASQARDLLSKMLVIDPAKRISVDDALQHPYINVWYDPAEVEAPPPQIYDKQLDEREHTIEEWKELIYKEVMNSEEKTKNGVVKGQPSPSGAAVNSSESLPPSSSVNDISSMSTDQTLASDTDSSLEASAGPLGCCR

[17] = biological target: full-length kinase/Nluc fusion proteins (Homo sapiens, UniProt O60285); settings: NUAK1, Nluc N; read-out: Probe EC50
[18] = biological target: full-length kinase/Nluc fusion proteins (Homo sapiens, UniProt Q2M2I8); settings: AAK1, Nluc N; read-out: Probe EC50
[19] = biological target: full-length kinase/Nluc fusion proteins (Homo sapiens, UniProt P35590); settings: TIE1 (NP_005415), Nluc orientation C; read-out: Probe EC50
[20] = biological target: full-length kinase/Nluc fusion proteins (Homo sapiens, UniProt Q9NY57); settings: STK32B (NP_060871), Nluc orientation N; read-out: Probe EC50
[21] = biological target: full-length kinase/Nluc fusion proteins (Homo sapiens, UniProt P52333); settings: JAK3, Nluc C; read-out: Probe EC50
[22] = biological target: full-length kinase/Nluc fusion proteins (Homo sapiens, UniProt Q9Y616); settings: IRAK3, Nluc N; read-out: Probe EC50
[23] = biological target: full-length kinase/Nluc fusion proteins (Homo sapiens, UniProt Q02779); settings: MAP3K10, Nluc N; read-out: Probe EC50
[24] = biological target: full-length kinase/Nluc fusion proteins (Homo sapiens, UniProt P53671); settings: LIMK2, Nluc C; read-out: Probe EC50
full-length kinase/Nluc fusion proteins (Homo sapiens, UniProt P53671), sequence (P53671 whole entry, the tested form may be a part): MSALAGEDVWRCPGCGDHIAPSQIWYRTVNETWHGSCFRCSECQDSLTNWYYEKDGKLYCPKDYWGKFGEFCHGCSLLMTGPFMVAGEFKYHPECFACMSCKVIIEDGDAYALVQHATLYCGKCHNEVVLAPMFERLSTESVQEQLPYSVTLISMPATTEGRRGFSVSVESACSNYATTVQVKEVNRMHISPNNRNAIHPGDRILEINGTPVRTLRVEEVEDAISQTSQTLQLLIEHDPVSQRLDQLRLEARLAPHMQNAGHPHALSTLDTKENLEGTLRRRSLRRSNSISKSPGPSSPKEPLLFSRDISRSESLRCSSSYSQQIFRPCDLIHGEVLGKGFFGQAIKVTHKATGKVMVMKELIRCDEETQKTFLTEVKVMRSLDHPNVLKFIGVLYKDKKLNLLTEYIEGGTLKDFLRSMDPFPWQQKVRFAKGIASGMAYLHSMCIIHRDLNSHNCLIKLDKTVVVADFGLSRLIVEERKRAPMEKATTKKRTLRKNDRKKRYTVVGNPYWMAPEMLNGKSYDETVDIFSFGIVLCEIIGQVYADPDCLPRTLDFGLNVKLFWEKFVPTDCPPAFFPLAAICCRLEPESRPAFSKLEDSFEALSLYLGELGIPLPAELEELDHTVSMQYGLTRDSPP

[25] = biological target: full-length kinase/Nluc fusion proteins (Homo sapiens, UniProt P51813); settings: BMX, Nluc C; read-out: Probe EC50
[26] = biological target: full-length kinase/Nluc fusion proteins (Homo sapiens, UniProt P54760); settings: EPHB4, Nluc C; read-out: Probe EC50
[27] = biological target: full-length kinase/Nluc fusion proteins (Homo sapiens, UniProt Q9Y2K2); settings: SIK3 (NP_079440), Nluc orientation N; read-out: Probe EC50
[28] = biological target: full-length kinase/Nluc fusion proteins (Homo sapiens, UniProt Q16539); settings: MAPK14, Nluc C; read-out: Probe EC50
full-length kinase/Nluc fusion proteins (Homo sapiens, UniProt Q16539), sequence (Q16539 whole entry, the tested form may be a part): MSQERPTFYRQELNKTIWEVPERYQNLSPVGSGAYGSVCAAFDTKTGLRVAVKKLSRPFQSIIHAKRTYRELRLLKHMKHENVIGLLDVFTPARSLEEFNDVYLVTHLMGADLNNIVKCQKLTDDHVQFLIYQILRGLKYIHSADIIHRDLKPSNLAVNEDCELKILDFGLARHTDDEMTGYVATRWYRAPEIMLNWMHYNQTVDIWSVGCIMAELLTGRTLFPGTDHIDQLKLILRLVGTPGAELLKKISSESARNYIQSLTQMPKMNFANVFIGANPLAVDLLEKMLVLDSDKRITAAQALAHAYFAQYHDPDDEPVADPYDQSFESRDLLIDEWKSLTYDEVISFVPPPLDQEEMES

[29] = biological target: full-length kinase/Nluc fusion proteins (Homo sapiens, UniProt Q15569); settings: TESK1 (NP_006276), Nluc orientation N; read-out: Probe EC50
full-length kinase/Nluc fusion proteins (Homo sapiens, UniProt Q15569), sequence (Q15569 whole entry, the tested form may be a part): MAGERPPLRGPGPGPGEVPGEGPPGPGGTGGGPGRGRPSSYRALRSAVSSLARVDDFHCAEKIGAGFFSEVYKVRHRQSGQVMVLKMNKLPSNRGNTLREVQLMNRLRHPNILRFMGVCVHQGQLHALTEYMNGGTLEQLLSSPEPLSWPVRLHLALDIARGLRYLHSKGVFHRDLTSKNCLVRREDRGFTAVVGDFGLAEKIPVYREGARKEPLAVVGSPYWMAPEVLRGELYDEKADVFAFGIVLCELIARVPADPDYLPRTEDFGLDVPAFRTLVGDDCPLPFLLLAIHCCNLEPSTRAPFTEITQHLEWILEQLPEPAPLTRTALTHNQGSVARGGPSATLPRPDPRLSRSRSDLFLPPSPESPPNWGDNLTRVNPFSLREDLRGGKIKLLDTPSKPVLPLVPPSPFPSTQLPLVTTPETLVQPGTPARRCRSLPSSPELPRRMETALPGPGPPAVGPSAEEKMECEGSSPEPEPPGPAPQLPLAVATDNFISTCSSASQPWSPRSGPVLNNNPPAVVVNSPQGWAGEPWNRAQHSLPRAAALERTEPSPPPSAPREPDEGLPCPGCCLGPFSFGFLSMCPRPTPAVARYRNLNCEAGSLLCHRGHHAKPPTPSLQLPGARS

[30] = biological target: full-length kinase/Nluc fusion proteins (Homo sapiens, UniProt O15197); settings: EPHB6, Nluc C; read-out: Probe EC50
[31] = biological target: full-length kinase/Nluc fusion proteins (Homo sapiens, UniProt P29323); settings: EPHB2, Nluc C; read-out: Probe EC50
[32] = biological target: full-length kinase/Nluc fusion proteins (Homo sapiens, UniProt Q16832); settings: DDR2, Nluc C; read-out: Probe EC50
full-length kinase/Nluc fusion proteins (Homo sapiens, UniProt Q16832), sequence (Q16832 22-855): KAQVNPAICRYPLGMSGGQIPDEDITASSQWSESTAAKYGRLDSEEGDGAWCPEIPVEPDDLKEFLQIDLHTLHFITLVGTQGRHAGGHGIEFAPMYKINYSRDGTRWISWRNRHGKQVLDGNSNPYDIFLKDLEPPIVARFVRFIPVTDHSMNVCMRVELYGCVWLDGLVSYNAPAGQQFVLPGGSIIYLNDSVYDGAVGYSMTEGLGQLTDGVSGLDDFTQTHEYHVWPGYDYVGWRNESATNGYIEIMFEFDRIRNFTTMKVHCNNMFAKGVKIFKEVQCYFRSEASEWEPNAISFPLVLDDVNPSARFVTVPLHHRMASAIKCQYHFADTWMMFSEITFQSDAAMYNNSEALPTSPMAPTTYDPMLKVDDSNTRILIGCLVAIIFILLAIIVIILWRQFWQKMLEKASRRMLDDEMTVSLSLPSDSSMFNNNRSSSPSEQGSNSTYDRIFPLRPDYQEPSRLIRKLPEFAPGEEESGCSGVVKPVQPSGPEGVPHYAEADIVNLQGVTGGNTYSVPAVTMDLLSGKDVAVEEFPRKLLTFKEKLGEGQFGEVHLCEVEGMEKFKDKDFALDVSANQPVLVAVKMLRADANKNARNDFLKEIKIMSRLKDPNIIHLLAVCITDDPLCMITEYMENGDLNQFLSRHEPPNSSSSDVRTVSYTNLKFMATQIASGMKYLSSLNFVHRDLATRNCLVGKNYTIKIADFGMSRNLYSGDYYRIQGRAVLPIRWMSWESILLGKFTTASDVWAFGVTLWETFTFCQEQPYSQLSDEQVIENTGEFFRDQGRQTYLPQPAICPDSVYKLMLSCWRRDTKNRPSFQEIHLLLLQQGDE

EC50 [1]: > 1000 nM | EC50 [2]: 400 nM | EC50 [3]: > 1000 nM | EC50 [4]: 50 nM | EC50 [5]: > 1000 nM | EC50 [6]: > 1000 nM | EC50 [7]: 500 nM | EC50 [8]: > 1000 nM | EC50 [9]: > 1000 nM | EC50 [10]: > 1000 nM | EC50 [11]: > 1000 nM | EC50 [12]: 200 nM | EC50 [13]: > 1000 nM | EC50 [14]: > 1000 nM | EC50 [15]: 300 nM | EC50 [16]: > 1000 nM | EC50 [17]: 100 nM | EC50 [18]: > 1000 nM | EC50 [19]: 100 nM | EC50 [20]: 600 nM | EC50 [21]: > 1000 nM | EC50 [22]: 60 nM | EC50 [23]: > 1000 nM
Structure (SMILES): CNC(=O)c1ccccc1Nc1nc(Nc2ccc(N3CCN(C(=O)CCOCCOCCOCCOCCNC(=O)CCc4ccc5n4[B-](F)(F)[N+]4=C(c6ccc[nH]6)C=CC4=C5)CC3)cc2)ncc1Cl [Energy Transfer Probe 5, 2-((2-((4-(4-(1-amino-3,6,9,12-tetraoxapentadecan-15-oyl)piperazin-1-yl)phenyl)amino)-5-chloropyrimidin-4-yl)amino)-N-methylbenzamide-NanoBRET 590]

EC50 [24]: > 1000 nM | EC50 [25]: 300 nM | EC50 [26]: 10 nM | EC50 [27]: > 1000 nM | EC50 [28]: 80 nM | EC50 [29]: > 1000 nM | EC50 [30]: > 1000 nM | EC50 [31]: 20 nM | EC50 [32]: 100 nM
Structure (SMILES): Cc1nc(Nc2ncc(C(=O)Nc3c(C)cccc3Cl)s2)cc(N2CCN(CCOCCNC(=O)CCc3ccc4n3[B-](F)(F)[N+]3=C(c5ccc[nH]5)C=CC3=C4)CC2)n1 [Energy Transfer Probe 6, 2-((6-(4-(2-(2-aminoethoxy)ethyl)piperazin-1-yl)-2-methylpyrimidin-4-yl)amino)-N-(2-chloro-6-methylphenyl)thiazole-5-carboxamide-NanoBRET 590]
